Source: paper PMC8748766, “The catalytic activity of TCPTP is auto-regulated by its intrinsically disordered tail and activated by Integrin alpha-1” (Nature Communications, 2022)

T1: TCPTPCAT (residues 1-288) (human, UniProt P17706-2 1-288)
T1 construct: T cell protein tyrosine phosphatase (TCPTP, PTPN2), human, TC45 isoform, catalytic domain residues 1-288, cloned into pMCSG7; used for cross-linking in trans; source: E. coli BL21 (DE3) RIL, purified (His-trap, TEV cleavage, subtraction, SEC); not shown: His6, N-terminal, cleaved
T1 sequence (looked up): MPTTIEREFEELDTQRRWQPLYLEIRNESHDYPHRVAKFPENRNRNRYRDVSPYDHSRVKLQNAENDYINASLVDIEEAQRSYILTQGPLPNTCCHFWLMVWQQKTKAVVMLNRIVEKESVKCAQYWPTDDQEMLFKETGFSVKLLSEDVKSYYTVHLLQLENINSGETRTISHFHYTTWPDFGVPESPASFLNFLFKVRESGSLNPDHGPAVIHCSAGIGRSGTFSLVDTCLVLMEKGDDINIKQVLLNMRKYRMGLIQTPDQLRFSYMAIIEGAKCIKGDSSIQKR


Assays:
TCPTP = conditions: via the cytoplasmic tail of ITGA1; cited from earlier work
[1] = molecular target: T1, TCPTPCAT (residues 1-288); assay: cross-linking; in trans: TCPTPCAT (1-288) 0.75 μM with TCPTP_Tail (289-387) 75 or 150 μM (1:100 and 1:200), BS3 or DSSO 0 to 1000 μM, 25 mM Hepes pH 7.4, 50 mM NaCl, room temperature 1 h; band cut from SDS-PAGE, LC-MS or LC-MSn; conditions: both partners purified

Row | Molecule | activation of full-length TCPTP (TCPTP) | binding result [1]
1 | integrin α1: collagen-binding integrin α1 (ITGA1) | activate full-length TCPTP | 
2 | TCPTP_(Tail) (residues 289-387) (domain or fragment, human, UniProt P17706-2 289-387, looked up, T cell protein tyrosine phosphatase (TCPTP, PTPN2), human, TC45 isoform, C-terminal tail residues 289-387, cloned into pMCSG7; used for cross-linking in trans; source: E. coli BL21 (DE3) RIL, purified (His-trap, TEV cleavage, subtraction, heat step 80 °C 10 min, SEC); not shown: His6, N-terminal, cleaved) WKELSKEDLSPAFDHSPNKIMTEKYNGNRIGLEEEKLTGDRCTGLSSKMQDTMEENSESALRKRIREDRKATTAQKVQQMKQRLNENERKRKRPRLTDT |  | binds
